The values that follow come from the PolyMetriX glass transition set.

The compound `*CC(C)/C=C(/*)C` (repeat unit) came in with a glass transition temperature of 2.30 °C.
In the case of `*Oc1ccc(-c2ccc(Oc3ccc(C(=O)c4cccc(C(=O)c5ccc(*)cc5)c4)cc3)cc2)cc1` (repeat unit), the glass transition temperature came out at 159.00 °C.
Compound `*Oc1ccc(C(C)(C)c2ccc(Oc3ccc4c(c3)C(=O)N(N3C(=O)c5ccc(*)cc5C3=O)C4=O)cc2)cc1` (repeat unit) had a glass transition temperature of 216.70 °C.
Compound `*Oc1ccc(S(=O)(=O)c2ccc(*)cc2)c2ccccc12` (repeat unit) returned a glass transition temperature of 238.00 °C.
For `*Oc1ccc(S(=O)(=O)c2ccc(Oc3ccc(/C=C4\CCCC/C(=C\c5ccc(Oc6ccc(S(=O)(=O)c7ccc(Oc8ccc(C(C)(C)c9ccc(*)cc9)cc8)cc7)cc6)cc5)C4=O)cc3)cc2)cc1` (repeat unit), the glass transition temperature was determined as 188.00 °C.
`*Oc1ccc(S(=O)(=O)c2ccc(Oc3ccc(C(C)(C)c4ccc(*)c(C(O)(C(F)(F)F)C(F)(F)F)c4)cc3C(O)(C(F)(F)F)C(F)(F)F)cc2)cc1` (repeat unit) registered a glass transition temperature of 167.00 °C.
Turning to `*Oc1ccc(S(=O)(=O)c2ccc(Oc3ccc(C(C)(C)c4ccc(*)c(Cl)c4)cc3Cl)cc2)cc1` (repeat unit), the glass transition temperature amounted to 205.00 °C.
`*Oc1ccc(S(=O)(=O)c2ccc(Oc3ccc(C(C)(C)c4ccc(*)cc4)cc3)c(S(=O)(=O)O)c2)cc1S(=O)(=O)O` (repeat unit): the glass transition temperature was 188.00 °C.
In turn, `*Oc1ccc(S(=O)(=O)c2ccc(Oc3ccc(C(C)(C)c4ccc(*)cc4)cc3)cc2N)c(N)c1` (repeat unit) registered a glass transition temperature of 210.50 °C.
Next, `*Oc1ccc(S(=O)(=O)c2ccc(Oc3ccc(C(c4ccc(*)c([Si](C)(C)C)c4)(C(F)(F)F)C(F)(F)F)cc3[Si](C)(C)C)cc2[Si](C)(C)C)c([Si](C)(C)C)c1` (repeat unit): 148.90 °C; `*Oc1ccc(S(=O)(=O)c2ccc(Oc3ccc(C(c4ccc(*)cc4)C(C)C)cc3)cc2)cc1` (repeat unit): 200.00 °C; `*Oc1ccc(S(=O)(=O)c2ccc(Oc3ccc(C4CCCC(C(C)c5ccc(*)cc5)C4)cc3)cc2)cc1` (repeat unit): 230.00 °C.
For `*Oc1ccc(S(=O)(=O)c2ccc(Oc3ccc(P(=O)(c4ccccc4)c4ccc(*)cc4)cc3)cc2)cc1` (repeat unit), the glass transition temperature was determined as 231.00 °C.
As to `*Oc1ccc(S(=O)(=O)c2ccc(Oc3ccc(P(C)(=O)c4ccc(*)cc4)cc3)cc2)cc1` (repeat unit), the glass transition temperature turned out to be 233.00 °C.
Consider `*Oc1ccc(S(=O)(=O)c2ccc3ccc(S(=O)(=O)c4ccc(*)cc4)cc3c2)cc1` (repeat unit), for which the glass transition temperature came out at 250.00 °C.
Next, `*c1ccc(-c2ccc(-n3c(-c4ccc(Oc5ccc(C(=O)c6cccc(C(=O)c7ccc(Oc8ccc(-c9nc%10ccccc%10n9*)cc8)cc7)c6)cc5)cc4)nc4ccccc43)cc2)cc1` (repeat unit): 244.00 °C.
Compound `*c1ccc(Oc2ccc(C(=O)c3cccc(C(=O)c4ccc(Oc5ccc(-c6nc(-c7cccc(-c8nc(*)c(-c9ccccc9)[nH]8)c7)[nH]c6-c6ccccc6)cc5)cc4)c3)cc2)cc1` (repeat unit) returned a glass transition temperature of 256.50 °C.
`*c1ccc(Oc2ccc(C(C)(C)c3ccc(Oc4ccc(S(*)(=O)=O)cc4)cc3)cc2)s1` (repeat unit): the glass transition temperature worked out at 162 °C.
Take `*c1ccc(Oc2ccc(S(=O)(=O)c3ccc(Oc4ccc(-c5c6c(c(*)c7ccccc57)C(=O)N(c5ccc(F)cc5)C6=O)cc4)cc3)cc2)cc1` (repeat unit): the glass transition temperature was 300.00 °C.
The compound `*c1ccc(Oc2ccc(S(=O)(=O)c3ccc(Oc4ccc(C5(*)OC(=O)c6ccccc65)cc4)cc3)cc2)cc1` (repeat unit) gave a glass transition temperature of 247.00 °C.
Turning to `*c1cccc(-n2nc(-c3ccccc3)c3cc(Oc4ccc(C(C)(C)c5ccc(Oc6ccc7c(-c8ccccc8)nn(*)c(=O)c7c6)cc5)cc4)ccc3c2=O)c1C#N` (repeat unit), the glass transition temperature worked out at 200.00 °C.
